Tested on: 156681-154-R-J1 tumor spheroid viability
Test: Anticancer human tumor 156681-154-R-J1 patient-derived melanoma cell line growth inhibition
Conditions: spheroids with HUVEC and MSC; for IC50: curve of first compound; for viability, T/C: stronger effect = lower value
Outline: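 Complex tumor spheroids combined malignant cells with endothelial cells and mesenchymal stem cells. DNA-damaging drugs and DNA repair inhibitors were tested alone and in combination, at half-log dilutions down from clinical Cmax (top 10 microM if Cmax unknown), 0.25% DMSO final.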

[1] = second compound 0.003 µM, first compound 0.0949 µM
[2] = second compound 0.003 µM, first compound 0.3 µM
[3] = second compound 0.003 µM, first compound 0.949 µM
[4] = second compound 0.003 µM, first compound 3 µM
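Note: spheroids exposed to compounds for 7 days before readout.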
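Throughout, for viability, T/C: percent of vehicle control viability where 100% = DMSO-treated spheroids.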

CNCc1ccc(-c2cc(-c3nc(-c4ccc(S(=O)(=O)C(C)C)cc4)cnc3N)on2)cc1 + CC[C@@]1(O)C(=O)OCc2c1cc1n(c2=O)Cc2cc3c(CN(C)C)c(O)ccc3nc2-1
IC50 (second compound 0.003 µM): 0.733 µM | IC50 (second compound 0.00949 µM): 0.451 µM | IC50 (second compound 0.03 µM): 0.296 µM | IC50 (second compound 0.0949 µM): < 0.00949 µM | IC50 (second compound 0.3 µM): < 0.00949 µM | viability, T/C (second compound 0.003 µM, first compound 0.00949 µM): 103% | viability, T/C (second compound 0.003 µM, first compound 0.03 µM): 93.6% | viability, T/C [1]: 82.1% | viability, T/C [2]: 65.2% | viability, T/C [3]: 46.8% | viability, T/C [4]: 20.3% | viability, T/C (second compound 0.00949 µM, first compound 0.00949 µM): 136% | viability, T/C (second compound 0.00949 µM, first compound 0.03 µM): 92.3% | viability, T/C (second compound 0.00949 µM, first compound 0.0949 µM): 73.8% | viability, T/C (second compound 0.00949 µM, first compound 0.3 µM): 58.8% | viability, T/C (second compound 0.00949 µM, first compound 0.949 µM): 46.8% | viability, T/C (second compound 0.00949 µM, first compound 3 µM): 7.92% | viability, T/C (second compound 0.03 µM, first compound 0.00949 µM): 66% | viability, T/C (second compound 0.03 µM, first compound 0.03 µM): 60.1% | viability, T/C (second compound 0.03 µM, first compound 0.0949 µM): 60.1% | viability, T/C (second compound 0.03 µM, first compound 0.3 µM): 50.4% | viability, T/C (second compound 0.03 µM, first compound 0.949 µM): 27.5% | viability, T/C (second compound 0.03 µM, first compound 3 µM): 7.5% | viability, T/C (second compound 0.0949 µM, first compound 0.00949 µM): 17.7% | viability, T/C (second compound 0.0949 µM, first compound 0.03 µM): 19.3% | viability, T/C (second compound 0.0949 µM, first compound 0.0949 µM): 24.2% | viability, T/C (second compound 0.0949 µM, first compound 0.3 µM): 14.5% | viability, T/C (second compound 0.0949 µM, first compound 0.949 µM): 12.8% | viability, T/C (second compound 0.0949 µM, first compound 3 µM): 0.15% | viability, T/C (second compound 0.3 µM, first compound 0.00949 µM): 31.1% | viability, T/C (second compound 0.3 µM, first compound 0.03 µM): 26.9% | viability, T/C (second compound 0.3 µM, first compound 0.0949 µM): 24.2% | viability, T/C (second compound 0.3 µM, first compound 0.3 µM): 24.2% | viability, T/C (second compound 0.3 µM, first compound 0.949 µM): 14.8% | viability, T/C (second compound 0.3 µM, first compound 3 µM): 10%

O=C(c1cc(Cc2n[nH]c(=O)c3ccccc23)ccc1F)N1CCN(C(=O)C2CC2)CC1 + COc1cc2c(cc1O)CCNC21CSC2c3c(OC(C)=O)c(C)c4c(c3C(COC1=O)N1C(O)C3Cc5cc(C)c(OC)c(O)c5C(C21)N3C)OCO4
IC50 (second compound 30 pM): > 30 µM | IC50 (second compound 94.9 pM): > 30 µM | IC50 (second compound 0.0003 µM): 5.84 µM | IC50 (second compound 0.000949 µM): < 0.0949 µM | IC50 (second compound 0.003 µM): < 0.0949 µM | viability, T/C (second compound 30 pM, first compound 0.0949 µM): 83.5% | viability, T/C (second compound 30 pM, first compound 0.3 µM): 77% | viability, T/C (second compound 30 pM, first compound 0.949 µM): 73.4% | viability, T/C (second compound 30 pM, first compound 3 µM): 72.2% | viability, T/C (second compound 30 pM, first compound 9.49 µM): 65.3% | viability, T/C (second compound 30 pM, first compound 30 µM): 60.1% | viability, T/C (second compound 94.9 pM, first compound 0.0949 µM): 82.1% | viability, T/C (second compound 94.9 pM, first compound 0.3 µM): 85.9% | viability, T/C (second compound 94.9 pM, first compound 0.949 µM): 82.7% | viability, T/C (second compound 94.9 pM, first compound 3 µM): 66.3% | viability, T/C (second compound 94.9 pM, first compound 9.49 µM): 69% | viability, T/C (second compound 94.9 pM, first compound 30 µM): 53.5% | viability, T/C (second compound 0.0003 µM, first compound 0.0949 µM): 69.8% | viability, T/C (second compound 0.0003 µM, first compound 0.3 µM): 68.6% | viability, T/C (second compound 0.0003 µM, first compound 0.949 µM): 64.1% | viability, T/C (second compound 0.0003 µM, first compound 3 µM): 66.8% | viability, T/C (second compound 0.0003 µM, first compound 9.49 µM): 37.8% | viability, T/C (second compound 0.0003 µM, first compound 30 µM): 21.2% | viability, T/C (second compound 0.000949 µM, first compound 0.0949 µM): 4.61% | viability, T/C (second compound 0.000949 µM, first compound 0.3 µM): 4.05% | viability, T/C (second compound 0.000949 µM, first compound 0.949 µM): 3.32% | viability, T/C (second compound 0.000949 µM, first compound 3 µM): 4.15% | viability, T/C (second compound 0.000949 µM, first compound 9.49 µM): 0.45% | viability, T/C (second compound 0.000949 µM, first compound 30 µM): 0.13% | viability, T/C [1]: 0.12% | viability, T/C [2]: 0.12% | viability, T/C [3]: 0.1% | viability, T/C [4]: 0.11% | viability, T/C (second compound 0.003 µM, first compound 9.49 µM): 0.11% | viability, T/C (second compound 0.003 µM, first compound 30 µM): 0.17%

Source: PubChem BioAssay AID1845195 (Molecular Pharmacology Branch, DTP, NCI, 2023)
